target: Sigma-1 receptor (Cavia porcellus); test: In vitro binding affinity towards sigma receptor by the displacement of [3H]PPP from guinea pig brain

IC50 [nM]	SMILES
12	OC(CCCN1CCN(c2ncc(F)cn2)CC1)C1CCCCC1 (configuration not stated) [1-Cyclohexyl-4-[4-(5-fluoro-pyrimidin-2-yl)-piperazin-1-yl]-butan-1-ol]
> 2	O=C(NC(CCCN1CCN(c2ncc(F)cn2)CC1)C1CCCCC1)c1ccc(F)cc1 (configuration not stated) [N-{1-Cyclohexyl-4-[4-(5-fluoro-pyrimidin-2-yl)-piperazin-1-yl]-butyl}-4-fluoro-benzamide]
> 100	O=C(NC(CCCN1CCN(c2ncc(F)cn2)CC1)c1ccc(F)cc1)c1ccc(F)cc1 (configuration not stated) [4-Fluoro-N-{1-(4-fluoro-phenyl)-4-[4-(5-fluoro-pyrimidin-2-yl)-piperazin-1-yl]-butyl}-benzamide]
51	Fc1ccc(SCCCN2CCN(c3ncc(F)cn3)CC2)cc1 [5-Fluoro-2-{4-[3-(4-fluoro-phenylsulfanyl)-propyl]-piperazin-1-yl}-pyrimidine]
> 45	O=S(=O)(CCCN1CCN(c2ncc(F)cn2)CC1)c1ccc(F)cc1 [5-Fluoro-2-{4-[3-(4-fluoro-benzenesulfonyl)-propyl]-piperazin-1-yl}-pyrimidine]
88	OC(CCCN1CCN(c2ncc(F)cn2)CC1)c1ccc(F)c2ccccc12 (configuration not stated) [1-(4-Fluoro-naphthalen-1-yl)-4-[4-(5-fluoro-pyrimidin-2-yl)-piperazin-1-yl]-butan-1-ol]
23	Fc1ccc(CCCCN2CCN(c3ncc(F)cn3)CC2)cc1 [5-Fluoro-2-{4-[4-(4-fluoro-phenyl)-butyl]-piperazin-1-yl}-pyrimidine]
3500	O=C(OC(CCCN1CCN(c2ncc(F)cn2)CC1)c1ccc(F)cc1)c1ccccc1 (configuration not stated) [Benzoic acid 1-(4-fluoro-phenyl)-4-[4-(5-fluoro-pyrimidin-2-yl)-piperazin-1-yl]-butyl ester]
52	NC(CCCN1CCN(c2ncc(F)cn2)CC1)C1CCCCC1 (configuration not stated) [1-Cyclohexyl-4-[4-(5-fluoro-pyrimidin-2-yl)-piperazin-1-yl]-butylamine]
89	Fc1ccc(OCCCN2CCN(c3ncc(F)cn3)CC2)cc1 [5-Fluoro-2-{4-[3-(4-fluoro-phenoxy)-propyl]-piperazin-1-yl}-pyrimidine]
215	NC(CCCN1CCN(c2ncc(F)cn2)CC1)c1ccc(F)c2ccccc12 (configuration not stated) [1-(4-Fluoro-naphthalen-1-yl)-4-[4-(5-fluoro-pyrimidin-2-yl)-piperazin-1-yl]-butylamine]
> 49	CC(=O)NC(CCCN1CCN(c2ncc(F)cn2)CC1)c1ccc(F)cc1 (configuration not stated) [N-{1-(4-Fluoro-phenyl)-4-[4-(5-fluoro-pyrimidin-2-yl)-piperazin-1-yl]-butyl}-acetamide]

— BindingDB's records for doi:10.1016/S0960-894X(01)80539-4 (1994)
